Data from US6849394B2, “Compositions comprising reproductive cell media and methods for using such compositions” (Minitube of America, priority 2002, dated 2005).

Tested on: boar sperm cells
Assay: Motility of sperm in boar semen stored at 17° C. in sperm cell medium (Sperm Vison)
Assay type: cell-based
Protocol: Compositions comprising sperm cell media were prepared prior to collection by reconstituting Androhep Plus™ and the individual components indicated in the experiments below with microfiltered, deionized (Type I) water. Androhep Plus™ was prepared according to the manufacturer's instructions, except that additional components were added in an amount sufficient to give the concentrations indicated below. Each composition was transferred in 75-ml aliquots to 100-ml plastic bottles commercially available from Minitube of America (Verona, Wis.). Semen was collected (modified full ejaculate) from randomly selected, sexually mature boars (n=3) using the gloved hand technique. Following each collection, each ejaculate was evaluated for sperm cell concentration with an SDM5 photometer with a 546 nm filter and the percentage of motile cells was assessed with Sperm Vison™ using a plain glass slide and a 6 μl drop of semen. Aliquots of semen containing 1×10^9 motile spermatozoa from each of the three boars was transferred into each 75-ml aliquot of composition comprising sperm cell medium at the same temperature (36° C.±1° C.) to give a final concentration of 4×10^7 live sperm cells/ml. Following dispersion of the sperm cells in the composition, each sample was tested for percent motility. Samples were maintained in a semen storage unit at 17° C. The samples were gently mixed periodically during storage. […] Each aliquot was pre-warmed for 30 minutes in a dry block heater at 37° C. prior to motility testing. Motility testing was which was performed using the Sperm Vison™ module in the Prism Program and a plain glass slide pre-warmed to 37° C.

O=C(CO)[C@@H](O)[C@H](O)[C@H](O)CO [fructose]
Mean % motility (Table 7, Androhep Plus + 20 ng/L TGFβ-1, 0.8 ng/L TGFβ-2, 80 ng/L IGF-1, fructose 3.75 g/L, day 1): 94.9% | Mean % motility (Table 7, Androhep Plus + 20 ng/L TGFβ-1, 0.8 ng/L TGFβ-2, 80 ng/L IGF-1, fructose 3.75 g/L, day 5): 88.7% | Mean % motility (Table 7, Androhep Plus + 20 ng/L TGFβ-1, 0.8 ng/L TGFβ-2, 80 ng/L IGF-1, fructose 3.75 g/L, day 10): 88.7% | Mean % motility (Table 7, Androhep Plus + 20 ng/L TGFβ-1, 0.8 ng/L TGFβ-2, 80 ng/L IGF-1, fructose 3.75 g/L, day 20): 89.8% | Mean % motility (Table 7, Androhep Plus + 20 ng/L TGFβ-1, 0.8 ng/L TGFβ-2, 80 ng/L IGF-1, fructose 7.5 g/L, day 1): 96.9% | Mean % motility (Table 7, Androhep Plus + 20 ng/L TGFβ-1, 0.8 ng/L TGFβ-2, 80 ng/L IGF-1, fructose 7.5 g/L, day 5): 91.0% | Mean % motility (Table 7, Androhep Plus + 20 ng/L TGFβ-1, 0.8 ng/L TGFβ-2, 80 ng/L IGF-1, fructose 7.5 g/L, day 10): 88.3% | Mean % motility (Table 7, Androhep Plus + 20 ng/L TGFβ-1, 0.8 ng/L TGFβ-2, 80 ng/L IGF-1, fructose 7.5 g/L, day 20): 89.8% | Mean % motility (Table 7, Androhep Plus + 20 ng/L TGFβ-1, 0.8 ng/L TGFβ-2, 80 ng/L IGF-1, fructose 15 g/L, day 1): 94.3% | Mean % motility (Table 7, Androhep Plus + 20 ng/L TGFβ-1, 0.8 ng/L TGFβ-2, 80 ng/L IGF-1, fructose 15 g/L, day 5): 85.8% | Mean % motility (Table 7, Androhep Plus + 20 ng/L TGFβ-1, 0.8 ng/L TGFβ-2, 80 ng/L IGF-1, fructose 15 g/L, day 10): 89.3% | Mean % motility (Table 7, Androhep Plus + 20 ng/L TGFβ-1, 0.8 ng/L TGFβ-2, 80 ng/L IGF-1, fructose 15 g/L, day 20): 89.3% | Mean % motility (Table 7, Androhep Plus + 20 ng/L TGFβ-1, 0.8 ng/L TGFβ-2, 80 ng/L IGF-1, fructose 30 g/L, day 1): 94.7% | Mean % motility (Table 7, Androhep Plus + 20 ng/L TGFβ-1, 0.8 ng/L TGFβ-2, 80 ng/L IGF-1, fructose 30 g/L, day 5): 54.8% | Mean % motility (Table 7, Androhep Plus + 20 ng/L TGFβ-1, 0.8 ng/L TGFβ-2, 80 ng/L IGF-1, fructose 30 g/L, day 10): 37.4% | Mean % motility (Table 7, Androhep Plus + 20 ng/L TGFβ-1, 0.8 ng/L TGFβ-2, 80 ng/L IGF-1, fructose 30 g/L, day 20): 2.2%

O[C@H]1[C@H](O)[C@@H](O)[C@H](O)[C@@H](O)[C@H]1O [inositol]
Mean % motility (Table 8, Androhep Plus, inositol 0.25 g/L, day 1): 85.7% | Mean % motility (Table 8, Androhep Plus, inositol 0.25 g/L, day 5): 88.0% | Mean % motility (Table 8, Androhep Plus, inositol 0.25 g/L, day 7): 93.3% | Mean % motility (Table 8, Androhep Plus, inositol 0.25 g/L, day 10): 78.3% | Mean % motility (Table 8, Androhep Plus, inositol 0.25 g/L, day 20): 48.0% | Mean % motility (Table 8, Androhep Plus, inositol 0.5 g/L, day 1): 94.7% | Mean % motility (Table 8, Androhep Plus, inositol 0.5 g/L, day 5): 93.3% | Mean % motility (Table 8, Androhep Plus, inositol 0.5 g/L, day 7): 92.7% | Mean % motility (Table 8, Androhep Plus, inositol 0.5 g/L, day 10): 84.3% | Mean % motility (Table 8, Androhep Plus, inositol 0.5 g/L, day 20): 70.3%

O=S(=O)([O-])[O-].[Zn+2] [zinc sulfate]
Mean % motility (Table 6, base Androhep Plus, zinc sulfate 0.05 g/L, day 1): 83.3% | Mean % motility (Table 6, base Androhep Plus, zinc sulfate 0.05 g/L, day 5): 83.7% | Mean % motility (Table 6, base Androhep Plus, zinc sulfate 0.05 g/L, day 10): 87.7% | Mean % motility (Table 6, base Androhep Plus, zinc sulfate 0.05 g/L, day 20): 84.0% | Mean % motility (Table 6, base Androhep Plus, zinc sulfate 0.1 g/L, day 1): 92.0% | Mean % motility (Table 6, base Androhep Plus, zinc sulfate 0.1 g/L, day 5): 93.3% | Mean % motility (Table 6, base Androhep Plus, zinc sulfate 0.1 g/L, day 10): 89.7% | Mean % motility (Table 6, base Androhep Plus, zinc sulfate 0.1 g/L, day 20): 78.3% | Mean % motility (Table 6, base Androhep Plus, zinc sulfate 0.2 g/L, day 1): 94.7% | Mean % motility (Table 6, base Androhep Plus, zinc sulfate 0.2 g/L, day 5): 93.3% | Mean % motility (Table 6, base Androhep Plus, zinc sulfate 0.2 g/L, day 10): 87.7% | Mean % motility (Table 6, base Androhep Plus, zinc sulfate 0.2 g/L, day 20): 87.0% | Mean % motility (Table 6, base Androhep Plus, zinc sulfate 0.5 g/L, day 1): 86.0% | Mean % motility (Table 6, base Androhep Plus, zinc sulfate 0.5 g/L, day 5): 85.7% | Mean % motility (Table 6, base Androhep Plus, zinc sulfate 0.5 g/L, day 10): 89.3% | Mean % motility (Table 6, base Androhep Plus, zinc sulfate 0.5 g/L, day 20): 82.5% | Mean % motility (Table 6, base Androhep Plus, zinc sulfate 1.0 g/L, day 1): 94.0% | Mean % motility (Table 6, base Androhep Plus, zinc sulfate 1.0 g/L, day 5): 73.0% | Mean % motility (Table 6, base Androhep Plus, zinc sulfate 1.0 g/L, day 10): 87.3% | Mean % motility (Table 6, base Androhep Plus, zinc sulfate 1.0 g/L, day 20): 78.3%
